From patent publication US20250026779A1 (priority 2023, published 2025)

Experiments:
[1] = target: T1, HiScribe T7 RNA synthesis kit (IVT reaction, DNA template encoding Lucia) (Escherichia phage T7, UniProt P00573); assay: In vitro transcription (IVT) of mRNAs containing cap analogs: yield / incorporation; format: biochemical
T1 construct: purchased New England Biolabs
Protocol: mRNA was transcribed from DNA template encoding Lucia using HiScribe T7 RNA synthesis kit (New England Biolabs, Ipswich, MA, USA). N^1-Methylpseudo-UTP (TniLink, San Diego, CA, USA) was used in replaced of UTP for the reaction. For 5′ capping of the mRNA, the cap analog compounds (e.g., Compounds 1-4) described herein, or CleanCap (TriLink, San Diego, CA, USA), were added to the IVT reaction, as indicated. The reactions were performed for 4 hours at 37° C.
Purification of the transcript was performed by TURBO DNase digestion (ThermoFisher Scientific, Waltham, MA, USA) for 30 min at 37° C. followed by RNAClean XP beads (Beckman Coulter) clean up. The RNA bound beads were washed 3 times with freshly prepared 70% ethanol, air dried for 15 minutes followed by elution in 200 μL of nuclease free water. The purified mRNA was quantified using nanodrop (ThermoFisher Scientific, Waltham, MA, USA) and analyzed using Tapestation (Agilent, Santa Clara, CA, USA).

Balb/c mice = assay: In vivo expression of Lucia mRNAs containing cap analogs; conditions: Lucia mRNA capped with the compound, compared with Cap1 (FIG. 1C)
Protocol: Candidate RNAs were formulated using proprietary lipid-based delivery vehicles (e.g., as described in WO 2020/069442 and WO 2023/014931) and administered to Balb/c mice at a dose of 15 μg per mouse. In life serum draws were conducted via submandibular vein at selected time points starting 2 hours post-dose. Serum was diluted 5 μL into […] of QUANTI-Luc reagent (InvivoGen, San Diego, CA, USA) and measured immediately using a plate reader (Molecular Devices, San Jose, CA, USA).

[2] = tested on: human Dendritic Cells (differentiated from PBMCs); assay: Cap immunogenicity by multiplexed cytokine screening (Luminex) in dendritic cells; format: cell-based; conditions: human DCs, 24 hours, compared with Cap1 (FIGS. 3A-3F)
Protocol: Fresh human Dendritic Cells (differentiated from PBMCs by GM-CSF+IL-4 stimulation) were plated at 5e4 cells per well in 96 well flat TC treated dish. mRNA was prepared in Lipofectamine MessengerMAX transfection reagent according to manufacturer's instructions at 2ng/1 k cells. Briefly, mRNA was diluted to 0.02 μg/μl in Opti-MEM reduced serum medium and mixed 1:1 with MessengerMAX to a concentration of 0.01 μg/μl. Two 1:10 dilutions were performed and 10 or 2.5 μl per well of each dilution was added directly to DCs in resulting doses of 2, 0.5, 0.2, 0.05 and 0.02 ng per 1000 DCs. Immunostimulatory RIG-1 agonist Hairpin RNA (3p-hpRNA, InvivoGen) and double stranded RNA (5′ ppp-dsRNA, InvivoGen) were used as controls and formulated as described above.
Stimulated DCs were incubated for 24 hours at 37° C. with 5% CO2. Supernatant was collected and immediately frozen at −80° C. It was subsequently thawed and prepared for Luminex xMAP analysis using a Human Inflammation 20-Plex ProcartaPlex Panel kit (ThermoFisher) according to the manufacturer's instructions. Data was acquired on a MAGPIX system (Luminex xMAP instrument) and pg/mL values for each analyte were derived from a standard curve generated with kit components. Values outside the range of the standard curve were reported as mean fluorescence intensity (MFI).

T1 sequence (P00573 whole entry): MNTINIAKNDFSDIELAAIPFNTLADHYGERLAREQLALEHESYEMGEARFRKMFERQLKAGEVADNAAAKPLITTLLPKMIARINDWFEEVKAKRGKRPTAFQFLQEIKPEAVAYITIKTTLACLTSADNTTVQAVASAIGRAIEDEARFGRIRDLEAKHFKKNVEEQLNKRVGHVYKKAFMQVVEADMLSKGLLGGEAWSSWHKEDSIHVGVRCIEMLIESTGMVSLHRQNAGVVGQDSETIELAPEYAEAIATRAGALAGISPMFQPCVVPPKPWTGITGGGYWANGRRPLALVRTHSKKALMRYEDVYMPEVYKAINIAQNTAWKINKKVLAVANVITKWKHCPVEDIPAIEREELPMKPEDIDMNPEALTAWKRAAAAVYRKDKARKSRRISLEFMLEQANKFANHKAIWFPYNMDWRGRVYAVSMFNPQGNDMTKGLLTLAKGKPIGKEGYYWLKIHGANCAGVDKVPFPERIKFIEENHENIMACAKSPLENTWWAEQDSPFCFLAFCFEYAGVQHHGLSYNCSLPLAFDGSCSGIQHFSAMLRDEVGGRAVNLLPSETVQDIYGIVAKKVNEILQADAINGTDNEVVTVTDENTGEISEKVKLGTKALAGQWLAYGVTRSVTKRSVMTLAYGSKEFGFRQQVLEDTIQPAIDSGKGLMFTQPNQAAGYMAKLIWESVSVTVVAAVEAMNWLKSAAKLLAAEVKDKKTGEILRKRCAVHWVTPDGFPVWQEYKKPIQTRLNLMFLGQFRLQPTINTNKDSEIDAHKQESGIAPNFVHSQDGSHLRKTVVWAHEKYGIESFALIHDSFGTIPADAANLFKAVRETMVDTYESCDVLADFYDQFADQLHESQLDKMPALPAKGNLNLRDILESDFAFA

| Structure (SMILES) | IVT yield ([1]; mRNA capped with the compound, compared with Cap1 (FIG. 1A)) | incorporation into IVT ([1]; trinucleotide cap modified at the 7G position) | in vivo expression (Balb/c mice) | immunogenicity across key cytokine markers (IFNγ, IFNα, IP-10, IL-1α, TNFα) [2] |
| --- | --- | --- | --- | --- |
| CC[n+]1cn([C@@H]2O[C@H](COP(=O)(O)OP(=O)([O-])OP(=O)(O)OC[C@H]3O[C@@H](n4cnc5c(N)ncnc54)[C@H](OC)[C@@H]3OP(=O)(O)OC[C@H]3O[C@@H](n4cnc5c(=O)[nH]c(N)nc54)[C@H](O)[C@@H]3O)[C@@H](O)[C@H]2O)c2nc(N)[nH]c(=O)c21 [Compound 1] | equivalently | successfully incorporated | equivalently | – |
| CC[n+]1cn([C@@H]2O[C@H](COP(=O)(O)OP(=O)(O)OP(=O)(O)OC[C@H]3O[C@@H](n4cnc5c(N)ncnc54)[C@H](OC)[C@@H]3O[P@@]([O-])(=S)OC[C@H]3O[C@@H](N4C=NC5C(=O)NC(N)=NC54)[C@H](O)[C@@H]3O)[C@@H](O)[C@H]2O)c2nc(N)[nH]c(=O)c21 (stereo partly shown) [Compound 3] | – | – | – | lower |
